Experimental findings from ChEMBL document CHEMBL1123229, “A molecular mechanics approach to the understanding of presynaptic selectivity for centrally acting dopamine receptor agonists of the phenylpiperidine series” (1986) are described below.

The source made the active and inactive calls. The calls are words filed in the database; no cut-off is given here.

The species named for test [1] is Rattus norvegicus. As to the kind of experiment: Dose required for postsynaptic agonism using motor activity test in reserpinized rats. It is filed as functional.
The species named for test [2] is Rattus norvegicus. Nature of the test: Postsynaptic agonistic activity using motor activity test in reserpinized rats per 30 min. It is filed as functional.
Test [3] is filed under the species Rattus norvegicus. Nature of the test: Compound was evaluated for postsynaptic agonistic activity using motor activity test in reserpinized rats per 30 min; ns= Not significant. The test is classed as functional.
Test [4] concerns the target T1, Dopamine receptor (Rattus norvegicus) (UniProt P25115+P19020+P30729+P18901+P61169). As to the kind of experiment: Compound was tested for presynaptic agonistic activity against dopamine receptor in limbic system; I= Inactive. It is filed as functional, tissue-based.
The target of test [5] is T1, Dopamine receptor (Rattus norvegicus). Nature of the test: Compound was tested or presynaptic agonistic activity against dopamine receptor in striatum; I= Inactive. It is filed as functional, tissue-based.
Test [6] shares this target. As to the kind of experiment: Compound was tested or presynaptic agonistic activity against dopamine receptor in striatum; Inactive. It is filed as functional, tissue-based.
The target is the same in test [7]. As to the kind of experiment: Compound was tested for presynaptic agonistic activity against dopamine receptor in limbic system; Inactive. The test is classed as functional, tissue-based.
The subject of test [8] is Rattus norvegicus. Nature of the test: Dose required for postsynaptic agonism using motor activity test in reserpinized rats; I= Inactive at 2 umol/kg. The test is classed as functional, organism-based.

`CCNC1CCc2c(O)cccc2C1` (configuration not stated) returned a Dose in the test listed under Rattus norvegicus [1] of 2 µM/kg. Further, the Acc. counts in the test listed under Rattus norvegicus [2] was determined as 181.
The like results for `CCCN1CCC[C@@H](c2ccc(O)c(O)c2)C1` were, in that order, 50 µM/kg and 24.
Taken in the same sequence, the figures for `CCCN1CCC[C@@H]2c3cc(O)ccc3CC[C@H]21` were 1.06 µM/kg and 155.
In the test listed under Rattus norvegicus [3], `Oc1ccc2c(c1)C1CCCNC1CC2` (configuration not stated) registered an Acc. counts of 10. Also, in the test filed under Rattus norvegicus [1], the Dose turned out to be 106 µM/kg.
For `CN1CCCC2c3cccc(O)c3CCC21` (configuration not stated), the Dose in the test listed under Rattus norvegicus [1] came to 100 µM/kg. The Acc. counts in the test filed under Rattus norvegicus [2] was determined as 40.
The like results for `CCCN(CCC)[C@@H]1CCc2ccc(O)cc2C1` were, in that order, 0.31 µM/kg and 46.
Taken in the same sequence, the figures for `CCCN(CCC)[C@@H]1Cc2cccc(O)c2C[C@H]1C` were 0.31 µM/kg and 155.
The like results for `CCCN1CCC[C@H]2c3cccc(O)c3CC[C@@H]21` were, in that order, 1.3 µM/kg and 62.
`CN1CCc2cccc3c2[C@H]1Cc1ccc(O)c(O)c1-3` [APOMORPHINE] yielded a Dose in the test filed under Rattus norvegicus [1] of 2.3 µM/kg. In addition, in the test filed under Rattus norvegicus [2], the Acc. counts turned out to be 361.
In the case of `Oc1cccc2c1CCC(N1CCCCC1)C2` (configuration not stated), the ED50 entry in test [4] and in test [5] was “inactive” each time.
`CN(C)C1CCc2c(O)cccc2C1` (configuration not stated) registered a Dose in the test listed under Rattus norvegicus [1] of 100 µM/kg. In the test filed under Rattus norvegicus [2], the Acc. counts was 52.
As for `CNC1CCc2c(O)cccc2C1` (configuration not stated), in the test listed under Rattus norvegicus [3], the Acc. counts amounted to 18. Also, in the test listed under Rattus norvegicus [1], the Dose was 100 µM/kg.
`CN1CCCC2c3cc(O)ccc3CCC21` (configuration not stated) returned a Dose in the test listed under Rattus norvegicus [1] of 106 µM/kg. This molecule came in with an Acc. counts in the test filed under Rattus norvegicus [2] of 60.
For `Oc1cccc2c1CC[C@@H]1NCCC[C@@H]21`, the Acc. counts in the test filed under Rattus norvegicus [3] is given as 10. The molecule further yielded a Dose in the test filed under Rattus norvegicus [1] of 106 µM/kg.
The molecule `CCCN(C)C1CCc2c(O)cccc2C1` (configuration not stated) showed a Dose in the test listed under Rattus norvegicus [1] of 2 µM/kg. The same molecule gave an Acc. counts in the test listed under Rattus norvegicus [2] of 239.
Taken in the same sequence, the figures for `CCCN1CCC[C@H](c2cccc(O)c2)C1` were 13 µM/kg and 78.
`CCCN1CCC[C@@H](c2cccc(O)c2)C1` [PRECLAMOL] yielded a Dose in the test listed under Rattus norvegicus [1] of 213 µM/kg. The Acc. counts in the test listed under Rattus norvegicus [2] came out at 12.
For the molecule `CCCCNC1CCc2c(O)cccc2C1` (configuration not stated), the ED50 entry in test [6] and in test [7] was “inactive” throughout. The Dose result in the test with Rattus norvegicus [8] was “inactive”.
